In patent US7807677B2, “HIV protease inhibitors” (Medivir AB, priority 2005, dated 2010):
Where two headings read alike, the source gives them in different places.

Experiments:
[1] = molecular target: T1, HIV-1 protease (Human immunodeficiency virus type 1 group M subtype B, UniProt P04585); assay: biochemical
[2] = tested on: HIV-1IIIB (wild type); assay: Antiviral activity in cell culture (XTT assay in MT-4 cells); assay type: cell-based; conditions: Human immunodeficiency virus 1, MT4, read-out: ED50 (μM)
Method: Compounds of the invention are assayed for HIV activity, for example using multiple determinations with XTT in MT-4 cells (Weislow et al, J Nat Cancer Inst 1989, vol 81 no 8, 577 et seq), preferably including determinations in the presence of 40-50% human serum to indicate the contribution of protein binding. In short the XTT assay uses human T cell line MT4 cells grown in RPMI 1640 medium supplemented with 10% fetal calf serum (or 40-50% human serum as appropriate), penicillin and streptomycin seeded into 96 well microplates (2·10^4 cells/well) infected with 10-20 TCID50 per well of HIV-1IIIB (wild type) or mutant virus, such as those bearing RT Ile 100, Cys 181 or Asn 103 mutations. Serially diluted test compounds are added to respective wells and the culture incubated at 37° C. in a CO2 enriched atmosphere and the viability of cells is determined at day five or six with XTT vital dye. Results are typically presented as ED50 μM.
Exp. Med. Biol., 1998, 436, 99-103. […] Agents Chemother., 1997, 41, 2383-2388.

[3] = molecular target: T1, HIV-1 protease; conditions: Enzyme Inhibition
[4] = cited from earlier work
[5] = tested on: cytochrome P450 3A enzyme; conditions: inhibitor of the cytochrome P450 3A enzyme; cited from earlier work

With `CC(C)(C)[C@H](NC(=O)NCc1ccccc1)C(=O)NN(Cc1ccccc1)C[C@@](O)(Cc1ccccc1)C(=O)N[C@H]1c2ccccc2C[C@H]1O` [Compound 18, (2S)-2-Benzyl-3-{N-Benzyl-N′-[(2S)-2-(3-benzyl-ureido)-3,3-dimethyl-butyryl]-hydrazino}-2-hydroxy-N-((1S,2R)-2-hydroxy-indan-1-yl)-propionamide] the Ki [1] was 11 to 50 nM.

With `CC(C)[C@H](NC(=O)OCc1ccccc1)C(=O)NN(Cc1ccccc1)C[C@@](O)(Cc1ccccc1)C(=O)N[C@H]1c2ccccc2C[C@H]1O` [Compound 11, {(1S)-1-[N′-Benzyl-N′-((2S)-2-hydroxy-2-((1S,2R)-2-hydroxy-indan-1-ylcarbamoyl)-3-phenyl-propyl)-hydrazinocarbonyl]-2-methyl-propyl}-carbamic acid benzyl ester] the Ki [1] was 11 to 50 nM.

With `COC(=O)N[C@H](C(=O)NN(Cc1ccccc1)C[C@@](O)(Cc1ccccc1)C(=O)N[C@H]1c2ccccc2C[C@H]1O)C(C)(C)C` [Compound 15, {(1S)-1-[N′-Benzyl-N′-((2S)-2-hydroxy-2-((1S,2R)-2-hydroxy-indan-1-ylcarbamoyl)-3-phenyl-propyl)-hydrazinocarbonyl]-2,2-dimethyl-propyl}-carbamic acid methyl ester] the Ki [1] was under 10 nM and the EC50 [2] was 2 to 10 µM.

“{(1S)-1-[N′-(4-Bromo-benzyl)-N′-((2S)-2-hydroxy-2-((1S,2R)-2-hydroxy-indan-1-ylcarbamoyl)-3-phenyl-propyl)-hydrazinocarbonyl]-2-methyl-propyl}-carbamic acid benzyl ester [Compound 20]” gave a Ki [3] of 11 to 50 nM.

In the case of `Cc1c(O)cccc1C(=O)N[C@@H](CSc1ccccc1)[C@H](O)CN1C[C@H]2CCCC[C@H]2C[C@H]1C(=O)NC(C)(C)C` [nelfinavir], the “increase the exposure of saquinavir” value ([4]; saquinavir dosed at 1200 mg thrice-daily (TID), at steady-state) is listed as 392%.

`COC(=O)N[C@H](C(=O)NN(Cc1ccc(Br)cc1)C[C@@](O)(Cc1ccccc1)C(=O)N[C@H]1c2ccccc2C[C@H]1O)C(C)(C)C` [Compound 19, {(1S)-1-[N′-(4-Bromo-benzyl)-N′-((2S)-2-hydroxy-2-((1S,2R)-2-hydroxy-indan-1-ylcarbamoyl)-3-phenyl-propyl)-hydrazinocarbonyl]-2,2-dimethyl-propyl}-carbamic acid methyl ester] showed an EC50 [2] of under 2 µM.

Work on `CC(C)(C)[C@H](NS(C)(=O)=O)C(=O)NN(Cc1ccccc1)C[C@@](O)(Cc1ccccc1)C(=O)N[C@H]1c2ccccc2C[C@H]1O` [Compound 17, (2S)-2-Benzyl-3-[N-benzyl-N′-((2S)-2-methanesulfonylamino-3,3-dimethyl-butyryl)-hydrazino]-2-hydroxy-N-((1S,2R)-2-hydroxy-indan-1-yl)-propionamide] yielded a Ki [1] of 50 to 100 nM.

For `COC(=O)N[C@H](C(=O)N[C@@H](Cc1ccccc1)[C@@H](O)CN(Cc1ccc(-c2ccccn2)cc1)NC(=O)[C@@H](NC(=O)OC)C(C)(C)C)C(C)(C)C` [Atazanavir, atazanavir], the Ki [5] is listed as 2400 nM and the “increase in exposure (saquinavir)” value ([4]; due to combination with atazanavir, multiple-dose pharmacology study) is listed as “greater than 3 fold”.

Work on `COC(=O)N[C@H](C(=O)NN(Cc1ccccc1)C[C@@](O)(Cc1ccccc1)C(=O)N[C@H]1c2ccccc2C[C@H]1O)C(C)C` [Compound 14, {(1S)-1-[N′-Benzyl-N′-((2S)-2-hydroxy-2-((1S,2R)-2-hydroxy-indan-1-ylcarbamoyl)-3-phenyl-propyl)-hydrazinocarbonyl]-2-methyl-propyl}-carbamic acid methyl ester] yielded a Ki [1] of under 10 nM and an EC50 [2] of 2 to 10 µM.

`CC(C)(C)[C@H](NC(=O)OCc1ccccc1)C(=O)NN(Cc1ccccc1)C[C@@](O)(Cc1ccccc1)C(=O)N[C@H]1c2ccccc2C[C@H]1O` [Compound 13, {(1S)-1-[N′-Benzyl-N′-((2S)-2-hydroxy-2-((1S,2R)-2-hydroxy-indan-1-ylcarbamoyl)-3-phenyl-propyl)-hydrazinocarbonyl]-2,2-dimethyl-propyl}-carbamic acid benzyl ester] showed a Ki [1] of 11 to 50 nM.
